Source: ChEMBL document CHEMBL1201862, “PubChem BioAssay data set” (2004)
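Test compounds were applied to cells in 96-well plates for 48 hours at 5 doses. At the GI50, growth is halved.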 Activity calls are given as the source filed them. No stated cut-off is given here; in the data, active = GI50 up to about 1.1 µM and inactive = higher.

Assays:
Experiment in all cases: NCI anticancer screen, dose series, 48 h
[1] = tested on: LOX IMVI
[2] = tested on: DU-145
[3] = tested on: SNB-19
[4] = tested on: A498
[5] = tested on: NCI-H23
[6] = tested on: NCI/ADR-RES
[7] = tested on: MCF7
[8] = tested on: M14
[9] = tested on: HCT-116
[10] = tested on: SK-MEL-5
[11] = tested on: COLO 205
[12] = tested on: Malme-3M
[13] = tested on: CCRF-CEM
[14] = tested on: UO-31
[15] = tested on: SF-539
[16] = tested on: NCI-H460
[17] = tested on: K562
[18] = tested on: MOLT-4
[19] = tested on: OVCAR-5

Measured: GI50

CCNc1ccc2c(c1)C(=O)N(OS(C)(=O)=O)C2=O
inactive: [1] 38.3 µM | [2] > 100 µM | [3] > 100 µM | [4] > 100 µM | [5] > 100 µM | [6] > 100 µM | [7] 33.6 µM | [8] 42.2 µM | [9] 36.5 µM | [10] 41.2 µM | [11] 42.7 µM | [12] 30.3 µM | [13] 32.1 µM | [14] 62.5 µM | [15] 22.4 µM | [16] > 100 µM

COc1cc(OC)c2c(O)c(S(=O)(=O)c3ccc(C)cc3)c(=O)oc2c1
inactive: [2] > 100 µM | [3] 93.3 µM | [17] 69.5 µM | [4] > 100 µM | [5] > 100 µM | [6] > 100 µM | [18] > 100 µM | [7] > 100 µM | [8] > 100 µM | [9] 77.8 µM | [10] > 100 µM | [11] > 100 µM | [12] > 100 µM | [13] 78.2 µM | [19] > 100 µM | [14] > 100 µM | [15] > 100 µM | [16] > 100 µM

COc1ccc(/C=N/NC(=O)C2=C(N)N(c3ccccc3)C(=C(C#N)C#N)S2)cc1
inactive: [2] > 100 µM | [3] 70 µM | [17] > 100 µM | [4] 22.6 µM | [5] > 100 µM | [6] > 100 µM | [18] > 100 µM | [7] > 100 µM | [8] > 100 µM | [9] > 100 µM | [10] > 100 µM | [11] > 100 µM | [12] > 100 µM | [13] > 100 µM | [19] > 100 µM | [14] > 100 µM | [15] 48.1 µM | [16] > 100 µM

NS(=O)(=O)c1nnc(NS(=O)(=O)c2ccc(Cl)cc2)s1
inactive: [1] > 100 µM | [2] > 100 µM | [3] > 100 µM | [17] > 100 µM | [4] > 100 µM | [5] > 100 µM | [6] > 100 µM | [18] > 100 µM | [7] > 100 µM | [8] > 100 µM | [9] > 100 µM | [10] > 100 µM | [11] > 100 µM | [12] > 100 µM | [19] > 100 µM | [14] > 100 µM | [16] > 100 µM

O=C1C=C(c2ccccc2)O/C1=C\C(=O)c1ccc(Cl)cc1
inactive: [1] 16.3 µM | [2] 43.6 µM | [3] > 100 µM | [17] 22.2 µM | [4] 80.2 µM | [5] 25.5 µM | [6] 23.2 µM | [18] 20.5 µM | [7] 17.3 µM | [8] 19.6 µM | [9] 16.4 µM | [10] 21.5 µM | [11] 16.3 µM | [12] 13.6 µM | [19] 24.3 µM | [14] 20.7 µM | [15] 57.7 µM | [16] > 100 µM

CC(Oc1ccccc1Cl)C(=O)NN1C(=O)CC(=O)NC1=S (stereo unspecified)
inactive: [1] 61.9 µM | [2] > 100 µM | [3] > 100 µM | [17] 9.53 µM | [4] > 100 µM | [5] > 100 µM | [6] > 100 µM | [18] > 100 µM | [7] > 100 µM | [8] > 100 µM | [9] > 100 µM | [10] > 100 µM | [11] > 100 µM | [12] > 100 µM | [19] > 100 µM | [14] 92.5 µM | [15] > 100 µM | [16] > 100 µM

Clc1ccc(-c2cn3c(nc4ccccc43)c(/C=C/c3ccco3)n2)cc1
inactive: [1] 33 µM | [2] 75.7 µM | [3] 41.4 µM | [17] 29.8 µM | [4] 29.5 µM | [5] 31.4 µM | [6] 42.1 µM | [7] 7.85 µM | [8] 58.1 µM | [9] 41.8 µM | [10] 33.9 µM | [11] 41.7 µM | [12] 70.3 µM | [19] > 100 µM | [14] 48.2 µM | [15] 71.1 µM | [16] 23.5 µM

CCN(CC)CCCNc1nc2ccccc2[n+]([O-])n1
inactive: [2] > 100 µM | [3] > 100 µM | [17] > 100 µM | [4] > 100 µM | [5] > 100 µM | [6] > 100 µM | [18] > 100 µM | [7] 50.9 µM | [8] > 100 µM | [9] > 100 µM | [10] > 100 µM | [11] > 100 µM | [12] > 100 µM | [13] > 100 µM | [19] > 100 µM | [14] > 100 µM | [15] > 100 µM | [16] > 100 µM

CN(C)C(=O)Nc1cc2c3c(c1)CCCN3CCC2
inactive: [1] > 10 µM | [2] > 10 µM | [3] > 10 µM | [17] > 10 µM | [4] 4.57 µM | [5] > 10 µM | [6] > 10 µM | [18] > 10 µM | [7] > 10 µM | [8] > 10 µM | [9] > 10 µM | [10] > 10 µM | [11] > 10 µM | [12] > 10 µM | [13] > 10 µM | [14] > 10 µM | [15] > 10 µM | [16] > 10 µM

O=C1NC(Cc2c[nH]c3ccccc23)C(=O)N2C(C3CCCCC3)c3[nH]c4ccccc4c3C[C@@H]12 (stereo partly specified)
inactive: [1] 13.3 µM | [2] 24.3 µM | [3] 22.3 µM | [17] 10.8 µM | [4] 15.2 µM | [5] 16.8 µM | [6] 11.7 µM | [18] 5.97 µM | [7] 9.08 µM | [8] 13.2 µM | [9] 10.2 µM | [10] 12.8 µM | [11] 17.2 µM | [12] 13.1 µM | [19] 20.7 µM | [14] 14.1 µM

C[n+]1c(-c2ccc(/C=N/NC(=O)C(=O)N/N=C/c3ccc(-c4cn5ccccc5[n+]4C)cc3)cc2)cn2ccccc21
inactive: [2] > 100 µM | [3] > 100 µM | [17] > 100 µM | [4] > 100 µM | [5] > 100 µM | [6] > 100 µM | [18] > 100 µM | [7] > 100 µM | [8] > 100 µM | [10] 91 µM | [11] > 100 µM | [12] > 100 µM | [13] > 100 µM | [19] > 100 µM | [14] > 100 µM | [15] > 100 µM | [16] > 100 µM
